Experimental data from the Deep4Chem optical property database.

Assay: solvent given as SMILES

Work on O=c1ccc2cc3c(cc2o1)OCC3 yielded an absorption maximum (in CC(C)O) of 333 nm, an absorption maximum (in CCO) of 333 nm and an absorption maximum (in CCOCC) of 330 nm. It also gave an absorption maximum (in CO) of 333 nm and an absorption maximum (in O) of 336 nm.
For CCOC(=O)c1cc(C(=O)OCC)c2cc(N(C)C)ccc2n1, the absorption maximum (in CCO) was 443 nm.
With N#Cc1ccccc1N1c2ccccc2C(c2ccccc2)(c2ccccc2)c2ccccc21 the absorption maximum (in Cc1ccccc1) was 356 nm.
CCCCCCCCCCCCCCCCCCOC(=O)/C=C/C1=CC2=C(c3c(C)cc(C)cc3C)c3cccn3[B-](F)(F)[N+]2=C1 gave an absorption maximum (in ClCCl) of 538 nm.
With C[n+]1ccn(CCCCc2ccc3c(c2)c2ccccc2n3-c2cc(C#N)c(C#N)cc2-n2c3ccccc3c3cc(CCCCn4cc[n+](C)c4)ccc32)c1 the absorption maximum (in CC#N) was 368.93 nm.
In the case of c1ccc(B2Nc3cc4c(cc3-c3sccc32)NB(c2ccccc2)c2ccsc2-4)cc1, the absorption maximum (in ClCCl) is reported as 405 nm.
Work on NC1=N/C(=N\c2ccccn2)c2cccc3cccc1c23 yielded an absorption maximum (in ClCCl) of 365 nm.
For CC(O)CC1=N/C(=C\c2cccc(N(C)C)c2)C(=O)N1C (stereo unspecified), the absorption maximum (in C1CCOC1) was 356 nm, the absorption maximum (in CC#N) was 355 nm and the absorption maximum (in CCCCCC) was 352 nm.
In the case of CC(C)(C)c1ccc2c(c1)c1cc(C(C)(C)C)ccc1n2-c1cc(C(=O)c2ccccn2)cc(-n2c3ccc(C(C)(C)C)cc3c3cc(C(C)(C)C)ccc32)c1, the absorption maximum (in Cc1ccccc1) is reported as 394 nm.
CCOC(=O)c1c(-c2cc3ccccc3oc2=O)nn(-c2ccccc2)c1C(=O)OCC gave an absorption maximum (in ClCCl) of 323 nm.
Work on CCOC(=O)/C(C)=C/C1=C(c2ccc(C)cc2)C2=Nc3c(-c4ccc(C)cc4)c(Br)c(-c4ccc(C)cc4)n3[B-](F)(F)[N+]2=C1c1ccc(C)cc1 yielded an absorption maximum (in ClC(Cl)Cl) of 661 nm.
Cc1ccc2c(c1)C1(c3ccccc3-c3ccccc31)c1cc(C)ccc1N2c1ccc2c(c1)Oc1ccccc1P2(=O)c1ccccc1 (stereo unspecified) showed an absorption maximum (in Cc1ccccc1) of 311.25 nm.
Compound CC(C)(C)c1ccc2c(c1)c1cc(C(C)(C)C)cc3c1n2-c1cc(-c2cccc(F)c2)cc2c1B3c1cc(C(C)(C)C)cc3c4cc(C(C)(C)C)ccc4n-2c13 has an absorption maximum (in Cc1ccccc1) of 467.1 nm.
For C/C(=C\c1ccccc1)c1nc2ccccc2o1, the absorption maximum (in C1CCCCC1) was 315 nm and the absorption maximum (in CO) was 315 nm.
Compound COc1ccc(N2c3cc(OC)ccc3N=c3cc4c(cc32)=Nc2cc(C(C)(C)C)cc(C(C)(C)C)c2O4)cc1 has an absorption maximum (in CC#N) of 539 nm, an absorption maximum (in CCCCCC) of 562 nm and an absorption maximum (in CO) of 558 nm.
In the case of O=c1[nH]c2ccccc2[nH]1, the absorption maximum (in C1CCOC1) is reported as 291 nm, the absorption maximum (in CC#N) is reported as 281 nm and the absorption maximum (in CC(C)=O) is reported as 285 nm. It also gave an absorption maximum (in CCCCCCC) of 292 nm, an absorption maximum (in CCCCCl) of 287 nm and an absorption maximum (in CCCCO) of 280 nm. For the same compound, the absorption maximum (in CCCO) was 280 nm, the absorption maximum (in CCCOCCC) was 280 nm and the absorption maximum (in CCO) was 280 nm.
Cc1c[nH]c(=O)[nH]c1=O gave an absorption maximum (in CC#N) of 261 nm.
COc1cc(OC)cc(C2=C3C(C)=C(I)C(C)=[N+]3[B-](F)(F)n3c(/C=C/c4c[nH]c5ccccc45)c(I)c(C)c32)c1 showed an absorption maximum (in C1CCOC1) of 627 nm, an absorption maximum (in CS(C)=O) of 636 nm and an absorption maximum (in ClCCl) of 618 nm.
CN(C)c1ccc2cc3ccc(=[N+](C)C)cc-3oc2c1 showed an absorption maximum (in CCO) of 547 nm and an absorption maximum (in O) of 548 nm.
COC(=O)/C=C/C=C/C1=CC2=C(c3c(C)cc(C)cc3C)c3cc(/C=C/C=C/C(=O)OC)cn3[B-](F)(F)[N+]2=C1 showed an absorption maximum (in ClCCl) of 633 nm.
With O=C1NC(=O)c2c1c1c3ccccc3[nH]c1c1[nH]c3ccccc3c21 the absorption maximum (in C1CCOC1) was 400 nm, the absorption maximum (in CC#N) was 402 nm and the absorption maximum (in CC(C)OC(C)C) was 391 nm. It also gave an absorption maximum (in CCCCOCCCC) of 393 nm, an absorption maximum (in CCO) of 405 nm and an absorption maximum (in CCOC(C)=O) of 398 nm. The absorption maximum (in CN(C)C=O) was 409 nm, the absorption maximum (in Cc1ccccc1) was 398 nm and the absorption maximum (in ClCCl) was 401 nm.
For CC(C)[Si](C#Cc1ccc(C#C[Si](C(C)C)(C(C)C)C(C)C)c2nc3ccccc3nc12)(C(C)C)C(C)C, the absorption maximum (in CCCCCC) was 440 nm and the absorption maximum (in ClCCl) was 439 nm.
With CC1(C)C(/C=C/C2=C(Cl)C(=C/C=C3/N(Cc4ccc(C(=O)O)cc4)c4ccccc4C3(C)C)/CCC2)=[N+](Cc2ccc(C(=O)O)cc2)c2ccccc21 the absorption maximum (in CO) was 786 nm.
For C1=C(c2ccc(-c3cccs3)s2)CCC(c2ccccc2)C1 (stereo unspecified), the absorption maximum (in C1CCOC1) was 342 nm, the absorption maximum (in CC#N) was 341 nm and the absorption maximum (in CCCCCC) was 341 nm. The absorption maximum (in CCO) was 341 nm, the absorption maximum (in OCCOCCO) was 346 nm and the absorption maximum (in c1ccncc1) was 347 nm.
With CCCCOc1ccc(-c2oc3cc4n(c3c2-c2ccc(OCCCC)cc2)[B-](F)(F)[N+]2=Cc3cc5oc(-c6ccc(OCCCC)cc6)c(-c6ccc(OCCCC)cc6)c5n3[B-](F)(F)[N+]2=C4)cc1 the absorption maximum (in C1CCOC1) was 596 nm, the absorption maximum (in CN(C)C=O) was 593 nm and the absorption maximum (in CS(C)=O) was 594 nm. The absorption maximum (in Cc1ccccc1) was 608 nm, the absorption maximum (in ClC(Cl)Cl) was 610 nm and the absorption maximum (in ClCCl) was 606 nm.
With N#Cc1c(-n2nnc3ccccc32)n([C@H]2C[C@H](O)[C@@H](CO)O2)c2ncnc(N)c12 the absorption maximum (in CO) was 278 nm.
With COc1ccc(NC(=O)C(C(=O)Nc2ccc(OC)cc2)C(c2ccccc2O)c2c(C)[nH]c3ccccc23)cc1 (stereo unspecified) the absorption maximum (in CO) was 258 nm and the absorption maximum (in CS(C)=O) was 266 nm.
Work on CC(C)(C)c1cc2c(c(C(C)(C)C)c1)O[B-]1(c3ccc([B-]45OC(c6ccccc6)=N[N+]4=Cc4cc(C(C)(C)C)cc(C(C)(C)C)c4O5)cc3)OC(c3ccccc3)=N[N+]1=C2 (stereo unspecified) yielded an absorption maximum (in C1CCOC1) of 455 nm.
CC1=[N+]2C(=C(c3c4ccccc4c(C)c4ccccc34)c3ccc(C)n3[B-]2(F)F)C=C1 showed an absorption maximum (in CC#N) of 514 nm, an absorption maximum (in CCCCCC) of 515 nm and an absorption maximum (in CCO) of 515 nm. For the same compound, the absorption maximum (in CN(C)C=O) was 517 nm, the absorption maximum (in Cc1ccccc1) was 519 nm and the absorption maximum (in ClCCl) was 517 nm.
Compound c1cc2c3c(cccc3c1)C(N1CCOCCOCCOCCOCC1)=N2 has an absorption maximum (in CC#N) of 427 nm.
With CCN(CC)c1ccc2c(-c3ccccc3C(=O)O)c3c([o+]c2c1)/C(=C/C=C/c1ccc(N(C)C)cc1)CCC3 the absorption maximum (in ClCCl) was 749 nm.
COc1ccc2c(=O)c3c([nH]c2c1)-c1ccccc1NC3(C)C showed an absorption maximum (in C1CCOC1) of 404 nm, an absorption maximum (in CC#N) of 415 nm and an absorption maximum (in CCCCO) of 424 nm. The absorption maximum (in CCCO) was 421 nm, the absorption maximum (in CCO) was 424 nm and the absorption maximum (in CCOC(C)=O) was 395 nm. The absorption maximum (in CN(C)C=O) was 421 nm, the absorption maximum (in CO) was 424 nm and the absorption maximum (in CS(C)=O) was 424 nm. It also gave an absorption maximum (in Cc1ccccc1) of 397 nm, an absorption maximum (in ClC(Cl)(Cl)Cl) of 404 nm and an absorption maximum (in ClCCl) of 403 nm. It also gave an absorption maximum (in O) of 383 nm and an absorption maximum (in c1ccccc1) of 402 nm.
COC(=O)C1CCN(c2ccc3c(N4CCCCC4)c4ccc(=[N+]5CCC(C(=O)OC)CC5)cc-4oc3c2)CC1 (stereo unspecified) showed an absorption maximum (in ClCCl) of 482 nm.
In the case of CCCCCn1c2ccc(S(=O)(=O)O)cc2c(=O)c2cc(S(=O)(=O)O)ccc21, the absorption maximum (in CS(C)=O) is reported as 406 nm and the absorption maximum (in O) is reported as 406 nm.
CCCCc1ccc(C#Cc2ccc3nc4ccc(C#Cc5ccc(CCCC)cc5)cn4c(=O)c3c2)cc1 showed an absorption maximum (in ClCCl) of 383 nm.
Work on Fc1ccc(C#Cc2nc(C#Cc3ccc(F)cc3)c(C#Cc3ccc(F)cc3)c(C#Cc3ccc(F)cc3)c2C#Cc2ccc(F)cc2)cc1 yielded an absorption maximum (in ClCCl) of 407 nm.
In the case of C(=C\c1nc2ccccc2s1)/c1ccc(-c2nc3c4cccnc4c4ncccc4c3[nH]2)cc1, the absorption maximum (in C1CCOC1) is reported as 386 nm, the absorption maximum (in CC#N) is reported as 380 nm and the absorption maximum (in CO) is reported as 375 nm. It also gave an absorption maximum (in ClCCl) of 384 nm.
In the case of CCCCCOc1cc2oc(=O)c3c4ccc(O)cc4c4ccc5cccc6c(c1)c2c3c4c56, the absorption maximum (in C1CCOC1) is reported as 443 nm.
COc1cc2sc3nc(-c4ccccc4)sc3c2cc1OC showed an absorption maximum (in CS(C)=O) of 360 nm.
